Results from PubChem BioAssay AID1949 (Southern Research Institute, 2009).
Values after ≈ are worked out from the molar mass of the structure shown. Records with an inconclusive call do not appear. Active and inactive are the calls of the source. How the calls were made is not given here.

The compounds below were run on M. tuberculosis H37Rv growth inhibition (assay: Confirmatory growth inhibition assay against Mycobacterium tuberculosis H37Rv, potency (AID 1949);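 further: bacteria grown 7 days with compound before Alamar blue readout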).
COC(=O)CSc1nnc(-c2ccc(C)cc2)o1 was tested, and the IC50 was 0.15 µg/mL (≈ 0.568 µM).
Oc1ccc(-c2nc3cc4ccccc4cc3nc2-c2ccccc2)cc1 was tested, and the IC50 was 0.96 µg/mL (≈ 2.76 µM).
Work on CC(NC(=O)c1ccc([N+](=O)[O-])o1)C12CC3CC(CC(C3)C1)C2 (stereo not drawn) yielded an IC50 of 4.46 µg/mL (≈ 14 µM).
With Cc1ccccc1C(=O)N1CCN(c2ccc(NC(=S)NC(=O)c3cccc(Cl)c3)cc2)CC1 the IC50 was > 50 µg/mL (inactive).
CC1CCN(c2nc(-c3cccnc3)nc3ccccc23)CC1 was tested, and the IC50 was > 50 µg/mL (inactive).
For COc1ccccc1NC(=O)C1=C(C)NC(SCC(=O)Nc2ccccc2[N+](=O)[O-])=C(C#N)C1c1ccccc1F (stereo not drawn), the IC50 was 12 µg/mL (≈ 21 µM).
CN(c1ccccc1)c1ccc([N+](=O)[O-])c2nonc12 was tested, and the IC50 was < 0.1 µg/mL.
With CCOCC(=O)Nc1sc2c(c1C(=O)OCC)CCCC2 the IC50 was > 50 µg/mL (inactive).
CCOC(=O)N1CCc2c(sc(NC(=O)c3ccc([N+](=O)[O-])o3)c2C(=O)Nc2ccc(OCC)cc2)C1 showed an IC50 of 5.64 µg/mL (≈ 10.7 µM).
N#Cc1cc(-c2nc3ccccc3[nH]2)c(N)n2c1nc1ccccc12 gave an IC50 of 11.5 µg/mL (≈ 35.5 µM).
Compound O=c1oc(-c2ccccc2)cc(Cl)c1Cl has an IC50 of 2.04 µg/mL (≈ 8.46 µM).
Cc1nc2ccccc2n1CCCOc1ccc(Cl)cc1 showed an IC50 of 4.87 µg/mL (≈ 16.2 µM).
In the case of Cc1cc(C)nc(/N=C(\N)Nc2cc(Cl)ccc2Oc2ccccc2)n1, the IC50 is reported as 2.21 µg/mL (≈ 6.01 µM).
In the case of COC(=O)C(C)Oc1ccc2c(=O)c(Oc3ccc(OC)cc3)coc2c1 (stereo not drawn), the IC50 is reported as 5.99 µg/mL (≈ 16.2 µM).
Compound S=C(NCc1ccc(Cl)cc1)NCc1ccc(-n2cccn2)cc1 has an IC50 of 5.4 µg/mL (≈ 15.1 µM).
Work on Cc1ccc(OCC(=O)NC23CC4CC(CC(C4)C2)C3)cc1C yielded an IC50 of 3.77 µg/mL (≈ 12 µM).
In the case of Cc1ccccc1OCCOc1cccc(C=O)c1, the IC50 is reported as 6.79 µg/mL (≈ 26.5 µM).
In the case of COc1cccc2cc(C(=O)Oc3ccc(Cl)cc3)c(=O)oc12, the IC50 is reported as > 50 µg/mL (inactive).
Compound Cn1c(NC(=S)Nc2ccccc2)nc2ccccc21 has an IC50 of 0.35 µg/mL (≈ 1.24 µM).
For COc1ccc(CCNC(=S)NC23CC4CC(CC(C4)C2)C3)cc1, the IC50 was 7.85 µg/mL (≈ 22.8 µM).
Work on Cc1ccc(Cl)cc1N1CCN(CC(O)COc2ccc(C(=O)c3ccccc3)cc2)CC1 (stereo not drawn) yielded an IC50 of 2.94 µg/mL (≈ 6.32 µM).
Work on Cc1cc(-n2c(C)cc(/C=C3\NC(=O)NC3=O)c2C)ccc1Br yielded an IC50 of 8.38 µg/mL (≈ 22.4 µM).
In the case of O=C(Nc1ccc(-c2nc3ccccc3c(=O)o2)cc1)C(c1ccccc1)c1ccccc1, the IC50 is reported as > 50 µg/mL (inactive).
Cc1ccc(OCCN2CCN(c3nc(NCc4ccco4)c4ccccc4n3)CC2)cc1 gave an IC50 of 6.3 µg/mL (≈ 14.2 µM).
Work on COC(=O)c1c(C)oc2ccc(OC(=O)c3cccc([N+](=O)[O-])c3)cc12 yielded an IC50 of 3.65 µg/mL (≈ 10.3 µM).
For Cc1cc(NS(=O)(=O)c2ccc(NC(=O)c3ccc(C(C)(C)C)cc3)cc2)no1, the IC50 was 1.76 µg/mL (≈ 4.26 µM).
With O=C(CCNc1ccc(-c2ccccc2)cc1)c1ccco1 the IC50 was < 0.1 µg/mL.
COc1cc(/C=C/c2ccc3cccc(O)c3n2)ccc1O showed an IC50 of 0.27 µg/mL (≈ 0.92 µM).
Work on Cc1cccc2sc(NC(=O)c3ccc([N+](=O)[O-])cc3Cl)nc12 yielded an IC50 of 19.4 µg/mL (≈ 55.8 µM).
With O=C(CSc1ccc(Br)cc1)Nc1ccc([N+](=O)[O-])cc1 the IC50 was 23.6 µg/mL (≈ 64.2 µM).
In the case of CCn1c(NC(=S)Nc2ccccc2)nc2ccccc21, the IC50 is reported as > 50 µg/mL (inactive).
Compound C=CCc1cc(Cl)ccc1OCCCCn1ccnc1 has an IC50 of 2.09 µg/mL (≈ 7.19 µM).
For CC(NC(=O)Nc1ccccc1O)(C(F)(F)F)C(F)(F)F, the IC50 was 11.2 µg/mL (≈ 35.5 µM).
For Cc1ccc(-n2cnc3cc(NCc4cccs4)ccc32)cc1, the IC50 was 2.87 µg/mL (≈ 8.98 µM).
Work on CCc1ccc(Oc2coc3cc(OC(C)C(=O)OC)ccc3c2=O)cc1 (stereo not drawn) yielded an IC50 of 3.05 µg/mL (≈ 8.28 µM).
CCn1cc(C(=O)O)c(=O)c2cc(F)c(N3CCN(C(=O)Nc4ccccc4)CC3)cc21 was tested, and the IC50 was > 50 µg/mL (inactive).
Work on COc1ccc(C(=O)c2ccc(N3CCN(C)CC3)c([N+](=O)[O-])c2)c2ccccc12 yielded an IC50 of 5.57 µg/mL (≈ 13.7 µM).
CSc1nsc(SCC(=O)N2CCN(c3ccccc3)CC2)n1 was tested, and the IC50 was 0.35 µg/mL (≈ 0.955 µM).
CCCc1ccc(OCC(=O)Nc2ccc(Cl)cc2Cl)cc1 was tested, and the IC50 was 2.86 µg/mL (≈ 8.46 µM).
Compound CCn1nnc(NC(=O)COc2ccc(C3CCCCC3)cc2)n1 has an IC50 of 2.04 µg/mL (≈ 6.19 µM).
Work on Cc1cc2ncn(Cc3ccccc3C)c2cc1C yielded an IC50 of 11.1 µg/mL (≈ 44.4 µM).
For CCOC(=O)c1ccc(NC(=S)NCCN2CCc3ccccc3C2)cc1, the IC50 was 31 µg/mL (≈ 80.8 µM).
In the case of Cc1ccc(Oc2nc(-c3cccnc3)nc3ccccc23)cc1C, the IC50 is reported as 15.8 µg/mL (≈ 48.4 µM).
O=C(Oc1cccc2cccnc12)c1ccccc1Br was tested, and the IC50 was 1.36 µg/mL (≈ 4.14 µM).
With CCOC(=O)COc1ccc2c3c(c(=O)oc2c1)CCCCC3 the IC50 was 2.73 µg/mL (≈ 8.63 µM).
FC(F)(F)c1ccccc1Nc1nc(-c2ccccn2)cs1 was tested, and the IC50 was < 0.1 µg/mL.
Work on Clc1cc(Cl)c2c(c1)NC(c1cccnc1)C1CC=CC21 (stereo not drawn) yielded an IC50 of 22.1 µg/mL (≈ 69.6 µM).
For Cc1cc(Cl)c(OCCCNCc2ccccc2)c(Br)c1, the IC50 was 11.3 µg/mL (≈ 30.7 µM).
Work on CCc1ccc(S(=O)(=O)Nc2ccc(I)cc2)cc1 yielded an IC50 of 11.7 µg/mL (≈ 30.1 µM).
With CCC(OC(C)=O)c1ccc(OC(C)=O)c(OC)c1 (stereo not drawn) the IC50 was 1.43 µg/mL (≈ 5.37 µM).
Oc1ccc(Cl)cc1C1=NNC(c2ccccc2Cl)C1 (stereo not drawn) showed an IC50 of 0.65 µg/mL (≈ 2.12 µM).
With O=C(CC(O)(C(F)(F)F)C(F)(F)F)Nc1ccc(Cl)c(Cl)c1 the IC50 was 1.51 µg/mL (≈ 4.08 µM).
Compound Cc1cc(C)nc(/N=C(\N)Nc2cc(Cl)ccc2Cl)n1 has an IC50 of 12.3 µg/mL (≈ 39.7 µM).
For COc1ccc2cc(-c3nn(-c4ccccc4)cc3CO)ccc2c1, the IC50 was > 50 µg/mL (inactive).
O=C(Nc1ccccc1OC(F)F)c1ccc([N+](=O)[O-])o1 was tested, and the IC50 was 6.29 µg/mL (≈ 21.1 µM).
With O=[N+]([O-])c1ccc(N2CCN(CCO)CC2)cc1NCCOc1cccc2ccccc12 the IC50 was 2.82 µg/mL (≈ 6.46 µM).
In the case of CCOC(=O)c1c(-c2ccccc2)c2cc(OC)ccc2n1CCCN(C)C, the IC50 is reported as 4.68 µg/mL (≈ 12.3 µM).
In the case of CCOC(=O)COc1ccc2c(=O)c(Oc3ccc(F)cc3)c(C)oc2c1, the IC50 is reported as 1.51 µg/mL (≈ 4.06 µM).
